What was measured:
Hep 3B2 [1] = assay: Growth inhibition of human Hep3B cells at 10 uM after 24 hrs by MTT assay relative to control; type: functional; settings: read-out: GI
Hep 3B2 [2] = assay: Cell cycle arrest in human Hep3B cells assessed as accumulation at G0/G1 phase at 10 uM after 24 hrs by propidium iodide staining based flow cytometry (reference value: 36.3 to 39.0%); type: functional
Hep 3B2 [3] = assay: Cell cycle arrest in human Hep3B cells assessed as accumulation at G0/G1 phase at 20 uM after 24 hrs by propidium iodide staining based flow cytometry (reference value: 36.3 to 39.0%); type: functional
Hep 3B2 [4] = assay: Cell cycle arrest in human Hep3B cells assessed as accumulation at G0/G1 phase at 20 uM after 48 hrs by propidium iodide staining based flow cytometry (reference value: 39.7 to 40.4%); type: functional
Hep 3B2 [5] = assay: Cell cycle arrest in human Hep3B cells assessed as accumulation at G0/G1 phase at 20 uM after 72 hrs by propidium iodide staining based flow cytometry (reference value: 41.6 to 46.2%); type: functional
Hep 3B2 [6] = assay: Cell cycle arrest in human Hep3B cells assessed as accumulation at S phase at 2.5 uM after 24 hrs by propidium iodide staining based flow cytometry (reference value: 22.6 to 27.1%); type: functional
Hep 3B2 [7] = assay: Cell cycle arrest in human Hep3B cells assessed as accumulation at S phase at 5 uM after 48 hrs by propidium iodide staining based flow cytometry (reference value: 20.8 to 24%); type: functional
Hep 3B2 [8] = assay: Cell cycle arrest in human Hep3B cells assessed as accumulation at S phase at 5 uM after 72 hrs by propidium iodide staining based flow cytometry (reference value: 16.4 to 21.1%); type: functional
Hep 3B2 [9] = assay: Cell cycle arrest in human Hep3B cells assessed as accumulation at S phase at 10 uM after 72 hrs by propidium iodide staining based flow cytometry (reference value: 16.4 to 21.1%); type: functional
Hep 3B2 [10] = assay: Cell cycle arrest in human Hep3B cells assessed as accumulation at S phase at 20 uM after 24 hrs by propidium iodide staining based flow cytometry (reference value: 22.6 to 27.1%); type: functional
Hep 3B2 [11] = assay: Cell cycle arrest in human Hep3B cells assessed as accumulation at G2/M phase at 5 uM after 72 hrs by propidium iodide staining based flow cytometry (reference value: 28.7 to 32.3%); type: functional
Hep 3B2 [12] = assay: Cell cycle arrest in human Hep3B cells assessed as accumulation at G2/M phase at 10 uM after 72 hrs by propidium iodide staining based flow cytometry (reference value: 28.7 to 32.3%); type: functional
Hep 3B2 [13] = assay: Cell cycle arrest in human Hep3B cells assessed as accumulation at G2/M phase at 20 uM after 72 hrs by propidium iodide staining based flow cytometry (reference value: 28.7 to 32.3%); type: functional
Hep 3B2 [14] = assay: Cytotoxicity against human Hep3B cells after 48 hrs by MTT assay; type: functional, cell-based
Hep 3B2 [15] = assay: Cell cycle arrest in human Hep3B cells assessed as accumulation at G0/G1 phase at 2.5 uM after 48 hrs by propidium iodide staining based flow cytometry (reference value: 39.7 to 40.4%); type: functional
Hep 3B2 [16] = assay: Induction of autophagy in human Hep3B cells at 10 uM after 72 hrs by acridine orange staining based flow cytometry (reference value: 1.1 to 4%); type: functional
Hep 3B2 [17] = assay: Induction of autophagy in human Hep3B cells at 20 uM after 24 hrs by acridine orange staining based flow cytometry (reference value: 1.1 to 1.3%); type: functional
Hep 3B2 [18] = assay: Cell cycle arrest in human Hep3B cells assessed as accumulation at sub-G1 phase at 40 uM after 24 hrs by propidium iodide staining based flow cytometry (reference value: 1.9 to 3.6%); type: functional
Hep 3B2 [19] = assay: Cell cycle arrest in human Hep3B cells assessed as accumulation at G2/M phase at 40 uM after 48 hrs by propidium iodide staining based flow cytometry (reference value: 34.8 to […]%); type: functional
Hep 3B2 [20] = assay: Cell cycle arrest in human Hep3B cells assessed as accumulation at G0/G1 phase at 40 uM after 72 hrs by propidium iodide staining based flow cytometry (reference value: 41.6 to 46.2%); type: functional
Hep 3B2 [21] = assay: Induction of autophagy in human Hep3B cells at 40 uM after 24 hrs by acridine orange staining based flow cytometry (reference value: 1.1 to 1.3%); type: functional
Hep 3B2 [22] = assay: Cytotoxicity against human Hep3B cells after 6 days by MTT assay; type: functional, cell-based; settings: 144 h
Hep 3B2 [23] = assay: Growth inhibition of human Hep3B cells at 5 uM after 48 hrs in presence of curcumin by MTT assay; type: functional
Hep 3B2 [24] = assay: Cell cycle arrest in human Hep3B cells assessed as accumulation at G0/G1 phase at 10 uM after 48 hrs in absence of curcumin by propidium iodide staining based flow cytometry (reference value: […] +/- […]%); type: functional
Hep 3B2 [25] = assay: Induction of autophagy in human Hep3B cells assessed as ratio of LC3-2 to beta-actin level at 10 uM after 48 hrs in absence of curcumin by Western blot analysis; type: functional
Hep 3B2 [26] = assay: Effect on total GSK3beta expression in human Hep3B cells assessed as ratio of GSKbeta to beta-actin level at 10 uM after 48 hrs by Western blot analysis; type: cell-based; settings: hep 3b2, 48 h
Hep 3B2 [27] = assay: Up regulation of […] expression in human Hep3B cells at 1 uM after 6 to 24 hrs by L1000 expression profiling method relative to control; type: functional
Hep 3B2 [28] = assay: Down regulation of SLC27A3 expression in human Hep3B cells at 1 uM after 6 to 24 hrs by L1000 expression profiling method relative to control; type: functional
Hep 3B2 [29] = assay: Down regulation of SHB expression in human Hep3B cells at 1 uM after 6 to 24 hrs by L1000 expression profiling method relative to control; type: functional
Hep 3B2 [30] = assay: Down regulation of ORC1 expression in human Hep3B cells at 1 uM after 6 to 24 hrs by L1000 expression profiling method relative to control; type: functional
Hep 3B2 [31] = assay: Down regulation of PTPRK expression in human Hep3B cells at 1 uM after 6 to 24 hrs by L1000 expression profiling method relative to control; type: functional
Hep 3B2 [32] = assay: Down regulation of TGFB3 expression in human Hep3B cells at 1 uM after 6 to 24 hrs by L1000 expression profiling method relative to control; type: functional
Hep 3B2 [33] = assay: Down regulation of TFAP2A expression in human Hep3B cells at 1 uM after 6 to 24 hrs by L1000 expression profiling method relative to control; type: functional
Hep 3B2 [34] = assay: Down regulation of PLEKHM1 expression in human Hep3B cells at 1 uM after 6 to 24 hrs by L1000 expression profiling method relative to control; type: functional
Hep 3B2 [35] = assay: Down regulation of TMX2-CTNND1 expression in human Hep3B cells at 1 uM after 6 to 24 hrs by L1000 expression profiling method relative to control; type: functional
Hep 3B2 [36] = assay: Down regulation of GRB7 expression in human Hep3B cells at 1 uM after 6 to 24 hrs by L1000 expression profiling method relative to control; type: functional
Hep 3B2 [37] = assay: Down regulation of ARNT2 expression in human Hep3B cells at 1 uM after 6 to 24 hrs by L1000 expression profiling method relative to control; type: functional

| SMILES | inhibition of growth at 10 µM (Hep 3B2 [1]) | Activity (Hep 3B2 [2]) | Activity (Hep 3B2 [3]) | Activity (Hep 3B2 [4]) | Activity (Hep 3B2 [5]) | Activity (Hep 3B2 [6]) | Activity (Hep 3B2 [7]) | Activity (Hep 3B2 [8]) | Activity (Hep 3B2 [9]) | Activity (Hep 3B2 [10]) | Activity (Hep 3B2 [11]) | Activity (Hep 3B2 [12]) | Activity (Hep 3B2 [13]) | IC50 (Hep 3B2 [14]) | Activity (Hep 3B2 [16]) | Activity (Hep 3B2 [17]) | other results |
| --- | --- | --- | --- | --- | --- | --- | --- | --- | --- | --- | --- | --- | --- | --- | --- | --- | --- |
| CNC(=O)c1cc(Oc2ccc(NC(=O)Nc3ccc(Cl)c(C(F)(F)F)c3)cc2)ccn1 [SORAFENIB] | 8.6% | 53.6% | 45.7% | 27.8% | 13.6% | 21.9% | 13.1% | 13.7% | 7.9% | 14.3% | 31.3% | 22.7% | 15.2% | 11.2 µM | – | – | – |
| COc1ccc(CNC(=O)Nc2ncc([N+](=O)[O-])s2)cc1 | – | 34.3% | 33% | 37.8% | 43.6% | 25.7% | 24.6% | 21.7% | 21.5% | 25.1% | 33.9% | 34.1% | 34.9% | – | 13.2% | 8.9% | Activity (Hep 3B2 [15]): 38.5%; Activity (Hep 3B2 [18]): 6.5%; Activity (Hep 3B2 [19]): 41.6%; Activity (Hep 3B2 [20]): 38.5%; Activity (Hep 3B2 [21]): 7.1% |
| O=C1COc2ccccc2N1Cc1cn(CCC2OCCO2)nn1 | 18% | – | – | – | – | – | – | – | – | – | – | – | – | 16.8 µM | 49.4% | 5.5% | IC50 (Hep 3B2 [22]): 0.5 µM; CI (Hep 3B2 [23]): 0.92; Activity (Hep 3B2 [24]): 11.6%; Ratio (Hep 3B2 [25]): 2.2; Ratio (Hep 3B2 [26]): 0.8; log2FC (Hep 3B2 [27]): 3.5557; log2FC (Hep 3B2 [28]): -3.1535; log2FC (Hep 3B2 [29]): -3.2569; log2FC (Hep 3B2 [30]): -3.3272; log2FC (Hep 3B2 [31]): -3.3276; log2FC (Hep 3B2 [32]): -3.4573; log2FC (Hep 3B2 [33]): -3.78; log2FC (Hep 3B2 [34]): -3.9025; log2FC (Hep 3B2 [35]): -3.9071; log2FC (Hep 3B2 [36]): -4.419; log2FC (Hep 3B2 [37]): -5.0177 |

Source: ChEMBL document CHEMBL4024707, “Using gene expression database to uncover biology functions of 1,4-disubstituted 1,2,3-triazole analogues synthesized via a copper (I)-catalyzed reaction” (Eur J Med Chem, 2017)
